The values below come from patent US20260137671A1, “PDK4 as a Cell-Aging Intervention Target and Its Use in Chemotherapy and Anticancer” (Shanghai Institute of Nutrition and Health, Chinese Academy …, priority 2022, published 2026).

One assay concerns the target T1, HTR2B (Homo sapiens, UniProt P41595).
T1 construct: expressed in transfected cells; host or cells: PCa cell lines (PC3, DU145, M12)
The assay is described as follows: Malignant phenotype of HTR2B-transduced PCa lines with HTR2B antagonist. In kind it is cell-based. The note with it: PCa lines PC3, DU145, M12; antagonist applied under culture conditions. The text has this: FIG. 59. Left, appraisal of the proliferation capacity of PCa lines under different conditions. As the experimental group, human HTR2B was transduced into each PCa cell line, and LY 266097 was used in the culture medium as a control for drug treatment. Middle, measurement of the migration ability of PCa lines under different conditions, with cells treated similarly as described above. Right, measurement of the migration ability of PCa lines under different conditions, with cells treated similarly as described above.
(§1) After PSC27 cells were cultured in DMEM+0.5% FBS medium for 3 days, then the cell population was washed thoroughly with 1×PBS. After a simple centrifugation, the supernatant was collected as conditioned medium, stored at −80° C. or used directly. Prostate epithelial cells are subjected to in vitro experiments during continuous culture in this conditioned medium for 3 days. For chemotherapy resistance, epithelial cell lines were cultured either in low-serum DMEM (0.5% FBS) (referred to as “DMEM”) or in conditioned medium. Simultaneously, mitoxantrone (MIT) was used to treat cells for 1 to 3 days at concentrations close to the IC50 values for each cell line, followed by observation under a bright-field microscope.
More importantly, the transduction of HTR2B enhanced resistance of PCa cells to mitoxantrone (MIT). […]

Another assay concerns PC3. The assay is described as follows: MIT-based viability assay of PC3. Type of assay: cell-based, human. The note with it: PC3, range of concentrations of MIT. How it is done: FIG. 61. Dose-response curves (non-linear regression/curve fit) plotted from MIT-based viability assays of PC3 exposed to the CM of PSC27-PDK4 cells and treated by a range of concentrations of MIT.
as §1

The subject of assay [1] is cancer cells in tumors (PC3/PSC27 xenografts). The assay is described as follows: DNA damage and apoptosis in tumors by IHC (γ-H2AX, cleaved caspase 3). In kind it is in vivo, SCID mice. An excerpt:
FIG. 69. Statistical evaluating values of DNA-damaged cells and apoptotic cells in analyzed tumor specimens, represented as a percentage of cells positively stained by IHC with antibodies against γ-H2AX or caspase 3 (cleaved).
FIG. 70. Representative IHC images of caspase 3 (cleaved) in tumors at the end of therapeutic regimens. Biopsies of placebo-treated animals served as negative controls for drug-treated mice. Scale bar, 100 μm.
Considering the primary in vivo expressive results with MIT and/or PDK4-IN treatment, the inventors next asked how pharmacologically targeting PDK4 could enhance the therapeutic response of tumors. To disclose the possible mechanism(s), the inventors chose to dissect tumors from animals 7 days after initiation of treatment, a timepoint right before the development of resistant colonies.

The test system of assay [2] is tumor tissues of mice (PC3/PSC27 xenografts). Description: In vivo cellular senescence and SASP expression in xenograft tumors (LCM transcripts, SA-β-Gal staining). The arrangement: species or system SCID mice. The note with it: histological staining, FIG. 68. The text has this: FIG. 66. Transcript assessment of several canonical SASP factors expressed in stromal cells isolated from tumors in SCID mice. LCM isolation, total RNA preparation and expression assays on tissues from animals with simultaneously implanted stromal cells and cancer cells. Note that the group measured as of the lowest value was used as normalization baseline per factor.
FIG. 67. Transcript assessment of individual canonical SASP factors (AREG), aging markers (p16/p21) and PDK4 expressed in stromal cells isolated from tumors in SCID mice. LCM isolation, total RNA preparation and expression assays on tissues from animals with simultaneously implanted stromal cells and cancer cells. Note that the group measured as of the lowest value was used as normalization baseline per factor.
FIG. 68. Representative IHC images of SA-β-Gal staining chromatograms from tissues isolated from animals subjected to placebo or drug treatments. Scale bar, 100 μm. Right, Comparative statistical analysis of SA-β-Gal staining for tissues in mice mentioned above.
Senescence-associated β-galactosidase (SA-β-Gal) staining was performed following a previously reported procedure (Debacq-Chainiaux et al., 2009). Briefly, cells in culture dishes were washed with PBS and fixed at room temperature. Cells were fixed in 2% formaldehyde and 0.2% glutaraldehyde for 3 minutes. SA-β-Gal was used for staining with freshly prepared staining solution overnight at 37° C. Images were taken on the next day and the percentage of positive cells per unit area was calculated.
For pre-clinical chemotherapeutic studies, mice received subcutaneous implantation were given standard laboratory diets. […] The time points were on the first day of the third, fifth and seventh weeks, with a total of 3 cycles of treatment, and each cycle lasted for 2 weeks. After the course of treatment, mouse […] were collected for tumor measurement and histological analysis. […]

Assay [3] has as its system PC3 cells xenografted together with PSC27 cells. Description: PC3/PSC27 xenograft, tumor end volume after chemotherapy and/or PDK4-IN. The note with it: MIT alone, 0.2 mg/kg i.p., first day of weeks 3, 5, 7; end of 8-week regimen. Type of assay: in vivo, SCID mice. The method, then:
All experimental mouse experiments were carried out in strict accordance with the relevant regulations of the Institutional Animal Care and Use Committee (IACUC), Shanghai Institutes for Biological Sciences, Chinese Academy of Sciences. Immuno-deficient mice ICR SCID mice (body weight about 25 g) aged about 6 weeks were used for animal experiments related to the present disclosure. Stromal cells PSC27 and epithelial cells were mixed at a ratio of 1:4, and each graft contained 1.25×10^6 cells for tissue remodeling. The xenograft tumors were implanted into mice by subcutaneous transplantation, and the animals were euthanized 8 weeks after the end of the transplantation surgery. […] For pre-clinical chemotherapeutic studies, mice received subcutaneous implantation were given standard laboratory diets. […] The time points were on the first day of the third, fifth and seventh weeks, with a total of 3 cycles of treatment, and each cycle lasted for 2 weeks. After the course of treatment, mouse […] were collected for tumor measurement and histological analysis. […] The chemotherapy experiment ended at the end of the 8th week, and the mice were dissected immediately after sacrifice, and the xenograft tumors were collected and used for pathological system analysis. To closely mimic clinical conditions involving chemotherapeutic drugs, the inventors designed a preclinical regimen incorporating a genotoxic drug (MIT) and/or the PDK4 inhibitor (PDK4-IN) (FIG. 63).

Assay [4] has as its system MDA-MB-231 breast cancer cells xenografted together with HBF1203 breast stromal cells. The assay is described as follows: MDA-MB-231/HBF1203 xenograft, tumor end volume after chemotherapy and/or PDK4-IN. In kind it is in vivo, SCID mice. The note with it: DTX 1.0 mg/kg with PDK4-IN; FIG. 73. The method, then: All experimental mouse experiments were carried out in strict accordance with the relevant regulations of the Institutional Animal Care and Use Committee (IACUC), Shanghai Institutes for Biological Sciences, Chinese Academy of Sciences. Immuno-deficient mice ICR SCID mice (body weight about 25 g) aged about 6 weeks were used for animal experiments related to the present disclosure. Stromal cells PSC27 and epithelial cells were mixed at a ratio of 1:4, and each graft contained 1.25×10^6 cells for tissue remodeling. The xenograft tumors were implanted into mice by subcutaneous transplantation, and the animals were euthanized 8 weeks after the end of the transplantation surgery. Tumor volume was calculated according to the following formula: V=(π/6)×(([…])/2)^3 (V, volume; 1, length; w, width).
For pre-clinical chemotherapeutic studies, mice received subcutaneous implantation were given standard laboratory diets. […] The time points were on the first day of the third, fifth and seventh weeks, with a total of 3 cycles of treatment, and each cycle lasted for 2 weeks. After the course of treatment, mouse […] were collected for tumor measurement and histological analysis. […] In order to cause systemic expression of SASP factors induced by chemotherapy, MIT was administered to mice through intravenous infusion according to the above steps and sequence, but the dose was reduced to 0.1 mg/kg body weight/each time (the cumulative dose of MIT received in the whole course of treatment was 0.3 mg/kg body weight) to reduce drug-related toxicity. The chemotherapy experiment ended at the end of the 8th week, and the mice were dissected immediately after sacrifice, and the xenograft tumors were collected and used for pathological system analysis.
To assess the in vivo effects of chemotherapeutic drugs and/or PDK4-IN treatment in different tumor types, the inventors subsequently generated xenografts composed of breast cancer cell line MDA-MB-231 and breast stromal cell line HBF1203 to replicate the preclinical intervention observed in prostate cancer xenografts.

T1 sequence (P41595 whole entry): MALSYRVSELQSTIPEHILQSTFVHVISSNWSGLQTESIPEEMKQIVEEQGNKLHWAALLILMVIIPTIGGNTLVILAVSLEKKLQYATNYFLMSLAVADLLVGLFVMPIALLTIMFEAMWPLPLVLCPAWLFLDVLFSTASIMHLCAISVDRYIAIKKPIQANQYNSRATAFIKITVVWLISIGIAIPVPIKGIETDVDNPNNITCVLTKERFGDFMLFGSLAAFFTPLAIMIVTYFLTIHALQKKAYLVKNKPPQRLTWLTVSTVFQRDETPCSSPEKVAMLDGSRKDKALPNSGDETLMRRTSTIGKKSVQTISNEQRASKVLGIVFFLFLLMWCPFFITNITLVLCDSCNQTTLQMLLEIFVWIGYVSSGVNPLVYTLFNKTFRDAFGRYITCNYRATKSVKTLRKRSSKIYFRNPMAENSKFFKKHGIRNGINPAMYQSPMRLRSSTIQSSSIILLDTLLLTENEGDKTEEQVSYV

On to `COc1ccc(CC2NCCc3c2[nH]c2ccc(C)cc32)c(Cl)c1OC.Cl` (stereo not shown) [LY 266097], for which the “HTR2B-conferred gain of proliferation, migration, invasion and resistance to MIT” value at HTR2B is “generally lost”.
In the case of `O=C1c2c(O)ccc(O)c2C(=O)c2c(NCCNCCO)ccc(NCCNCCO)c21` [MIT, mitoxantrone], the “survival curve of cancer cells under genotoxic stress” value in the assay on PC3 is “declined trend”. Further, the “caspase 3 cleavage (IHC)” value in assay [1] (MIT administration alone) is on record as “increased caspase 3 cleavage”. Also, in assay [1] (tumors dissected 7 days after initiation of treatment, single agent), the “DNA damage and apoptosis in cancer cells” value was “caused substantial DNA damage and apoptosis”. For the same compound, in assay [2], the “SA-β-gal positivity in tumor tissues” value is listed as “elevated SA-β-gal positivity”. Besides, the “tumor shrinkage (tumor volume reduction)” value in assay [3] was 57.5%.
With `CC(=O)O[C@@]12CO[C@@H]1C[C@H](O)[C@@]1(C)C(=O)[C@H](O)C3=C(C)[C@@H](OC(=O)[C@H](O)[C@@H](NC(=O)OC(C)(C)C)c4ccccc4)C[C@@](O)([C@@H](OC(=O)c4ccccc4)[C@H]21)C3(C)C` [docetaxel (DTX), docetaxel], the “tumor regression by combination with PDK4-IN (non-genotoxic drug)” value in assay [4] is on record as “unable to replicate the effects”.
